Source: ChEMBL document CHEMBL3769322, “Synthesis and evaluation of anticancer and antiobesity activity of 1-ethoxy carbonyl-3,5-bis (3'-indolyl methylene)-4-pyperidone analogs” (Bioorg Med Chem Lett, 2016)

Columns and labels:
[1] = Cytotoxicity against human SKOV3 cells by MTT assay; format: functional, cell-based; settings: SK-OV-3
HeLa = assay: Cytotoxicity against human HeLa cells by MTT assay; format: functional, cell-based
[2] = Inhibition of porcine pancreatic lipase type 2 using p-nitrophenyl laurate as substrate after 2 hrs by UV spectrophotometric analysis; parameters: species or system Sus scrofa
MCF7 = assay: Cytotoxicity against human MCF7 cells by MTT assay; format: functional, cell-based
A549 = assay: Cytotoxicity against human A549 cells by MTT assay; format: functional, cell-based
HepG2 = assay: Cytotoxicity activity against human HepG2 cells by MTT assay; format: functional, cell-based

Row | IC50 [2] | IC50 ([2]; read-out: IC50) | SMILES | IC50 [1] | IC50 (HeLa) | IC50 (MCF7) | IC50 (A549) | IC50 (HepG2)
1 | Not Active | – | CCOC(=O)N1C/C(=C\c2cn(Cc3ccccc3Cl)c3ccccc23)C(=O)/C(=C/c2cn(Cc3ccccc3Cl)c3ccccc23)C1 | 50.6 µM | > 100 µM | > 100 µM | 2.75 µM | > 100 µM
2 | Not Active | – | CCOC(=O)N1C/C(=C\c2cn(Cc3ccccc3C#N)c3ccccc23)C(=O)/C(=C/c2cn(Cc3ccccc3C#N)c3ccccc23)C1 | > 100 µM | > 100 µM | > 100 µM | > 100 µM | > 100 µM
3 | Not Active | – | CCOC(=O)N1C/C(=C\c2cn(Cc3ccccc3)c3ccccc23)C(=O)/C(=C/c2cn(Cc3ccccc3)c3ccccc23)C1 | > 100 µM | > 100 µM | > 100 µM | > 100 µM | > 100 µM
4 | – | 30.9 µM | CCOC(=O)N1C/C(=C\c2cn(Cc3ccc([N+](=O)[O-])cc3)c3ccccc23)C(=O)/C(=C/c2cn(Cc3ccc([N+](=O)[O-])cc3)c3ccccc23)C1 | > 100 µM | > 100 µM | > 100 µM | 16 µM | > 100 µM
5 | Not Active | – | CCOC(=O)N1C/C(=C\c2cn(Cc3ccc(F)cc3)c3ccccc23)C(=O)/C(=C/c2cn(Cc3ccc(F)cc3)c3ccccc23)C1 | > 100 µM | 48 µM | > 100 µM | > 100 µM | > 100 µM
6 | Not Active | – | CCOC(=O)N1C/C(=C\c2cn(Cc3cccc(Cl)c3)c3ccccc23)C(=O)/C(=C/c2cn(Cc3cccc(Cl)c3)c3ccccc23)C1 | 18 µM | > 100 µM | > 100 µM | 4.21 µM | 7.33 µM
7 | Not Active | – | CCOC(=O)N1C/C(=C\c2cn(Cc3ccc(-c4ccccc4C#N)cc3)c3ccccc23)C(=O)/C(=C/c2cn(Cc3ccc(-c4ccccc4C#N)cc3)c3ccccc23)C1 | > 100 µM | > 100 µM | > 100 µM | > 100 µM | > 100 µM
8 | Not Active | – | CCOC(=O)N1C/C(=C\c2cn(Cc3ccc(Br)cc3)c3ccccc23)C(=O)/C(=C/c2cn(Cc3ccc(Br)cc3)c3ccccc23)C1 | > 100 µM | > 100 µM | > 100 µM | > 100 µM | > 100 µM

Continued, compound first:

Row | SMILES | IC50 [2] | IC50 ([2]; read-out: IC50) | IC50 [1] | IC50 (HeLa) | IC50 (MCF7) | IC50 (A549) | IC50 (HepG2)
9 | CCCCCCCCCCC[C@@H](C[C@@H]1OC(=O)[C@H]1CCCCCC)OC(=O)[C@H](CC(C)C)NC=O [ORLISTAT] | – | 62.2 µM | – | – | – | – | –
10 | COc1cccc2c1C(=O)c1c(O)c3c(c(O)c1C2=O)C[C@@](O)(C(=O)CO)C[C@@H]3O[C@H]1C[C@H](N)[C@H](O)[C@H](C)O1 [DOXORUBICIN] | – | – | 16.4 µM | 9.03 µM | – | 0.14 µM | 10.2 µM
11 | CCOC(=O)N1C/C(=C\c2cn(Cc3ccc(Cl)cc3Cl)c3ccccc23)C(=O)/C(=C/c2cn(Cc3ccc(Cl)cc3Cl)c3ccccc23)C1 | – | 14.9 µM | > 100 µM | > 100 µM | > 100 µM | > 100 µM | > 100 µM
12 | CCOC(=O)N1C/C(=C\c2cn(Cc3ccccc3F)c3ccccc23)C(=O)/C(=C/c2cn(Cc3ccccc3F)c3ccccc23)C1 | – | 56.4 µM | 85.5 µM | > 100 µM | > 100 µM | 29.1 µM | > 100 µM
13 | COc1cc(/C=C/C(=O)CC(=O)/C=C/c2ccc(O)c(OC)c2)ccc1O [CURCUMIN] | – | – | 49.9 µM | 51.9 µM | 46.2 µM | 23.5 µM | 4.43 µM
14 | CCOC(=O)N1C/C(=C\c2cn(C)c3ccccc23)C(=O)/C(=C/c2cn(C)c3ccccc23)C1 | Not Active | – | 55.1 µM | > 100 µM | > 100 µM | 66.7 µM | > 100 µM
